Measurements from patent publication US20100317624A1 (ASTRAZENECA AB, priority 2009, published 2010).
Counter-ions that a name gives are not always drawn.

Biological target: S. aureus GyrB ATPase (Staphylococcus aureus, UniProt P0A0K8)
Experiment: S. aureus GyrB ATPase inhibition (ammonium molybdate/malachite green phosphate detection)
Format: biochemical
Conditions: compound at 1 μM; inhibition of S. aureus GyrB ATPase; read-out: Percent Inhibition (1 μM)
Protocol: S. aureus GyrB ATPase Inhibition Activity: Compounds may be tested for inhibition of S. aureus GyrB ATPase activity using an ammonium molybdate/malachite green-based phosphate detection assay (Lanzetta, P. A., L. J. Alvarez, P. S. Reinach, and O. A. Candia, 1979, 100: 95-97). Assays can be performed in multiwell plates in 30 μl reactions containing: 50 mM Hepes buffer pH 7.5, 75 mM ammonium acetate, 8.0 mM magnesium chloride, 0.5 mM ethylenediaminetetraacetic acid, 5% glycerol, 1.0 mM 1,4-Dithio-DL-threitol, 200 nM bovine serum albumin, 1.0 μg/ml sheared salmon sperm DNA, 250 pM E. coli GyrA, 250 pM S. aureus GyrB, 250 μM ATP, and compound in dimethylsulfoxide. Reactions can be quenched with 30 μl of ammonium molybdate/malachite green detection reagent containing 1.2 mM malachite green hydrochloride, 8.5 mM ammonium molybdate tetrahydrate, and 1 M hydrochloric acid. Plates can be read in an absorbance plate reader at 650 nm and percent inhibition values can be calculated using dimethylsulfoxide (2%)-containing reactions as 0% inhibition and EDTA-containing ([…]) reactions as 100% inhibition controls. An IC50 measurement of compound potency for each compound can be determined from reactions performed in the presence of 10 different compound concentrations.

Sequence of S. aureus GyrB ATPase (P0AES4 whole entry): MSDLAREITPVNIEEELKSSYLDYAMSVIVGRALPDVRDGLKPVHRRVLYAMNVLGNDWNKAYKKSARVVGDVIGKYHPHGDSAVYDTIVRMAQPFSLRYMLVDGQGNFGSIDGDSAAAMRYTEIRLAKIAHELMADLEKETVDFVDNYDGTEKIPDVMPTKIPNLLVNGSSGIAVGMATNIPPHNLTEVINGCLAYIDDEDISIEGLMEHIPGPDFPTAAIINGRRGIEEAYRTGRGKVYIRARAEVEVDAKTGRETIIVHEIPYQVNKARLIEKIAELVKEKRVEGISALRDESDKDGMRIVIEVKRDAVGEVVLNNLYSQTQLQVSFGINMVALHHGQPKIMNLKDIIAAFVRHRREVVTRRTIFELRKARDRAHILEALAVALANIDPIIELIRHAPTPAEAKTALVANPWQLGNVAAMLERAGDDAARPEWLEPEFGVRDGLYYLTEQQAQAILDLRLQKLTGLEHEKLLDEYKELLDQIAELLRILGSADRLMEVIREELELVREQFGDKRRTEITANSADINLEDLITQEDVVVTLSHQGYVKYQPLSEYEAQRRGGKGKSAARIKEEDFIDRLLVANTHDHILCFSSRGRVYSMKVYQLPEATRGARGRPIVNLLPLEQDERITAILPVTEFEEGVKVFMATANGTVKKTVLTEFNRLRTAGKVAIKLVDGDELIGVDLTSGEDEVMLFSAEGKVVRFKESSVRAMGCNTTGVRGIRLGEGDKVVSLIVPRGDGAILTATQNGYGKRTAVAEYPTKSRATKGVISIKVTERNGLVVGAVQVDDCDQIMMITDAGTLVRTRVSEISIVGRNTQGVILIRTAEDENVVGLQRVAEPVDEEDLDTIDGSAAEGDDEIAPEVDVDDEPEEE
Sequence of S. aureus GyrB ATPase (P0A0K8 whole entry): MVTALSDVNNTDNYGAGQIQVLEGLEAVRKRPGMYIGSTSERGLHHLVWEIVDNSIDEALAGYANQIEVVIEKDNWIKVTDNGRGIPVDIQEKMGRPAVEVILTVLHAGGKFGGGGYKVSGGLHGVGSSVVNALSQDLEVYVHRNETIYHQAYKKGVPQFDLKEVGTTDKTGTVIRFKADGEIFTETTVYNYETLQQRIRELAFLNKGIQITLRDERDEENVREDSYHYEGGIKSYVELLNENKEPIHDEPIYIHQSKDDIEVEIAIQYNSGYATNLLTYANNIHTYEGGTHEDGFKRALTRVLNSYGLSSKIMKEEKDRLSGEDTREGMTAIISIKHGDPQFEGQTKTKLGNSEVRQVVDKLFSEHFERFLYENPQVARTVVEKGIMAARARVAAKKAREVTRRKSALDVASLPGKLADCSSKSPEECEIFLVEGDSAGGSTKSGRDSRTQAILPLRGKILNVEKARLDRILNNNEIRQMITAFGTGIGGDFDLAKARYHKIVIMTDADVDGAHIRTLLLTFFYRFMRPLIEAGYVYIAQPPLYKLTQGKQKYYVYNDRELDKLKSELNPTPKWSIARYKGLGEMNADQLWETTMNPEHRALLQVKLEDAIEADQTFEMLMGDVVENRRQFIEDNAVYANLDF

Row | Compound | inhibition at 1 µM [%]
1 | CCNC(=O)Nc1cc(-c2nc(-c3ccccc3)cs2)c(-c2cc3c(=O)c(C(=O)O)cn(CCN(C)C)c3cc2OCCN(CC)CC)cn1 [Example 46, 7-(2-(diethylamino)ethoxy)-1-(2-(dimethylamino)ethyl)-6-(6-(3-ethylureido)-4-(4-phenylthiazol-2-yl)pyridin-3-yl)-4-oxo-1,4-dihydroquinoline-3-carboxylic acid] | 108
2 | CCNC(=O)Nc1cc(-c2nc(C(F)(F)F)cs2)c(-c2ccc3c(c2)c(=O)c(C(=O)NCCOP(=O)(O)O)cn3C(COC)COC)cn1 [Example 8, 2-(1-(1,3-dimethoxypropan-2-yl)-6-(6-(3-ethylureido)-4-(4-(trifluoromethyl)thiazol-2-yl)pyridin-3-yl)-4-oxo-1,4-dihydroquinoline-3-carboxamido)ethyl dihydrogen phosphate hydrochloride] | 108
3 | CCNC(=O)Nc1cc(-c2nc(-c3ccccc3)cs2)c(-c2cc3c(=O)c(C(=O)O)cn(C[C@@H]4CCCN4CC)c3cc2OCCN(CC)CC)cn1 [Example 49, (S)-7-(2-(diethylamino)ethoxy)-1-((1-ethylpyrrolidin-2-yl)methyl)-6-(6-(3-ethylureido)-4-(4-phenylthiazol-2-yl)pyridin-3-yl)-4-oxo-1,4-dihydroquinoline-3-carboxylic acid] | 105
4 | CCNC(=O)Nc1cc(-c2nc(C(F)(F)F)cs2)c(-c2cc3c(=O)c(C(=O)O)cn(CC(C)N(C)C)c3cc2F)cn1 (stereo not drawn) [Example 51, 1-(2-(dimethylamino)propyl)-6-(6-(3-ethylureido)-4-(4-(trifluoromethyl)thiazol-2-yl)pyridin-3-yl)-7-fluoro-4-oxo-1,4-dihydroquinoline-3-carboxylic acid] | 95
5 | CCNC(=O)Nc1cc(-c2nc(C(F)(F)F)cs2)c(-c2cc3c(=O)c(C(=O)O)cn([C@H](CO)CC(C)C)c3cc2F)cn1 [Example 52, (S)-6-(6-(3-ethylureido)-4-(4-(trifluoromethyl)thiazol-2-yl)pyridin-3-yl)-7-fluoro-1-(1-hydroxy-4-methylpentan-2-yl)-4-oxo-1,4-dihydroquinoline-3-carboxylic acid] | 103
6 | CCNC(=O)Nc1cc(-c2nc(-c3ccccc3)cs2)c(-c2cc3c(=O)c(C(=O)O)cn(C[C@H]4CCCN4CC)c3cc2OCCN(CC)CC)cn1 [Example 45, (R)-7-(2-(diethylamino)ethoxy)-1-((1-ethylpyrrolidin-2-yl)methyl)-6-(6-(3-ethylureido)-4-(4-phenylthiazol-2-yl)pyridin-3-yl)-4-oxo-1,4-dihydroquinoline-3-carboxylic acid] | 102
7 | CCNC(=O)Nc1cc(-c2nc(C(F)(F)F)cs2)c(-c2ccc3c(c2)c(=O)c(C(=O)O)cn3C[C@@H]2CCN(CCN3CCN(C)CC3)C2)cn1 [Example 36, (R)-6-(6-(3-ethylureido)-4-(4-(trifluoromethyl)thiazol-2-yl)pyridin-3-yl)-1-((1-(2-(4-methylpiperazin-1-yl)ethyl)pyrrolidin-3-yl)methyl)-4-oxo-1,4-dihydroquinoline-3-carboxylic acid] | 112
8 | CCNC(=O)Nc1cc(-c2nc(C(F)(F)F)cs2)c(-c2ccc3c(c2)c(=O)c(C(=O)N(C)C)cn3CC2CN3CCN2CC3)cn1 (stereo not drawn) [Example 31, 1-(1,4-diazabicyclo[2.2.2]oct-2-ylmethyl)-6-{6-[(ethylcarbamoyl)amino]-4-[4-(trifluoromethyl)-1,3-thiazol-2-yl]pyridin-3-yl}-N,N-dimethyl-4-oxo-1,4-dihydroquinoline-3-carboxamide] | 114
9 | CCNC(=O)Nc1cc(-c2nc(C(F)(F)F)cs2)c(-c2ccc3c(c2)c(=O)c(C(=O)OCCOP(=O)(O)O)cn3C(COC)COC)cn1 [Example 19, 2-(phosphonooxy)ethyl 1-(1,3-dimethoxypropan-2-yl)-6-(6-(3-ethylureido)-4-(4-(trifluoromethyl)thiazol-2-yl)pyridin-3-yl)-4-oxo-1,4-dihydroquinoline-3-carboxylate] | 110
10 | CCNC(=O)Nc1cc(-c2nc([C@H](N)C(C)C)cs2)c(-c2ccc3c(c2)c(=O)c(C(=O)O)cn3[C@H](CO)C(C)(C)C)cn1 [Example 53, 6-(4-(4-((R)-1-amino-2-methylpropyl)thiazol-2-yl)-6-(3-ethylureido)pyridin-3-yl)-1-((S)-1-hydroxy-3,3-dimethylbutan-2-yl)-4-oxo-1,4-dihydroquinoline-3-carboxylic acid] | 46
11 | CCNC(=O)Nc1cc(-c2nc(C(F)(F)F)cs2)c(-c2ccc3c(c2)c(=O)c(C(=O)N(C)C)cn3C[C@H]2CCCNC2)cn1 [Example 33, 6-{6-[(Ethylcarbamoyl)amino]-4-[4-(trifluoromethyl)-1,3-thiazol-2-yl]pyridin-3-yl}-N,N-dimethyl-4-oxo-1-[(3S)-piperidin-3-ylmethyl]-1,4-dihydroquinoline-3-carboxamide] | 104
12 | CCNC(=O)Nc1cc(-c2nc(-c3ccccc3)cs2)c(-c2cc3c(=O)c(C(=O)O)cn(C[C@@H]4CCCN4CC)c3cc2OCCN(C)C)cn1 [Example 23, 7-(2-(dimethylamino)ethoxy)-1-(((S)-1-ethylpyrrolidin-2-yl)methyl)-6-(6-(3-ethylureido)-4-(4-phenylthiazol-2-yl)pyridin-3-yl)-4-oxo-1,4-dihydroquinoline-3-carboxylic acid] | 100
13 | CCNC(=O)Nc1cc(-c2nc(C(F)(F)F)cs2)c(-c2cc3c(=O)c(C(=O)O)cn(C[C@@H]4CCCN4CC)c3cc2OCCN(C)C)cn1 [Example 25, 7-(2-(dimethylamino)ethoxy)-1-(((S)-1-ethylpyrrolidin-2-yl)methyl)-6-(6-(3-ethylureido)-4-(4-(trifluoromethyl)thiazol-2-yl)pyridin-3-yl)-4-oxo-1,4-dihydroquinoline-3-carboxylic acid] | 98
14 | CCNC(=O)Nc1cc(-c2nc(C(F)(F)F)cs2)c(-c2ccc3c(c2)c(=O)c(C(=O)OCCOC(C)=O)cn3C(COC)COC)cn1 [Example 41, 2-acetoxyethyl 1-(1,3-dimethoxypropan-2-yl)-6-(6-(3-ethylureido)-4-(4-(trifluoromethyl)thiazol-2-yl)pyridin-3-yl)-4-oxo-1,4-dihydroquinoline-3-carboxylate] | 107
15 | CCNC(=O)Nc1cc(-c2nc(C(F)(F)F)cs2)c(-c2cc3c(=O)c(C(=O)O)cn(CCN(C)C)c3cc2F)cn1 [Example 20, 1-(2-(dimethylamino)ethyl)-6-(6-(3-ethylureido)-4-(4-(trifluoromethyl)thiazol-2-yl)pyridin-3-yl)-7-fluoro-4-oxo-1,4-dihydroquinoline-3-carboxylic acid] | 106
16 | CCNC(=O)Nc1cc(-c2nc(C(F)(F)F)cs2)c(-c2ccc3c(c2)c(=O)c(C(=O)NCCCOP(=O)(O)O)cn3C(COC)COC)cn1 [Example 10, 3-(1-(1,3-dimethoxypropan-2-y1)-6-(6-(3-ethylureido)-4-(4-(trifluoromethyl)thiazol-2-yl)pyridin-3-yl)-4-oxo-1,4-dihydroquinoline-3-carboxamido)propyl dihydrogen phosphate hydrochloride] | 12
17 | CCNC(=O)Nc1cc(-c2nc(C(F)(F)F)cs2)c(-c2ccc3c(c2)c(=O)c(C(=O)N(C)C)cn3CCN(C)C)cn1 [Example 29, 1-[2-(Dimethylamino)ethyl]-6-{6-[(ethylcarbamoyl)amino]-4-[4-(trifluoromethyl)-1,3-thiazol-2-yl]pyridin-3-yl}-N,N-dimethyl-4-oxo-1,4-dihydroquinoline-3-carboxamide] | 93
18 | CCNC(=O)Nc1cc(-c2nc(C(F)(F)F)cs2)c(-c2ccc3c(c2)c(=O)c(C(=O)N(C)C)cn3CCN2CCN(C)CC2)cn1 [Example 30, 6-{6-[(Ethylcarbamoyl)amino]-4-[4-(trifluoromethyl)-1,3-thiazol-2-yl]pyridin-3-yl}-N,N-dimethyl-1-[2-(4-methylpiperazin-1-yl)ethyl]-4-oxo-1,4-dihydroquinoline-3-carboxamide] | 98
19 | CCNC(=O)Nc1cc(-c2nc(C3CC3)cs2)c(-c2ccc3c(c2)c(=O)c(C(=O)O)cn3[C@H](COP(=O)(O)O)CC(C)C)cn1 [Example 12, (S)-6-(4-(4-cyclopropylthiazol-2-yl)-6-(3-ethylureido)pyridin-3-yl)-1-(4-methyl-1-(phosphonooxy)pentan-2-yl)-4-oxo-1,4-dihydroquinoline-3-carboxylic acid] | 104
20 | CCNC(=O)Nc1cc(-c2nc(C(F)(F)F)cs2)c(-c2cc3c(=O)c(C(=O)O)cn([C@H](CO)C(C)(C)C)c3cc2F)cn1 [Example 27, 6-(6-(3-ethylureido)-4-(4-(trifluoromethyl)thiazol-2-yl)pyridin-3-yl)-7-fluoro-1-((S)-1-hydroxy-3,3-dimethylbutan-2-yl)-4-oxo-1,4-dihydroquinoline-3-carboxylic acid] | 125
21 | CCNC(=O)Nc1cc(-c2nc(C(F)(F)F)cs2)c(-c2cc3c(=O)c(C(=O)O)cn([C@H](CO)C(C)C)c3cc2OC)cn1 [Example 28, 6-(6-(3-ethylureido)-4-(4-(trifluoromethyl)thiazol-2-yl)pyridin-3-yl)-1-((S)-1-hydroxy-3-methylbutan-2-yl)-7-methoxy-4-oxo-1,4-dihydroquinoline-3-carboxylic acid] | 104
